According to ChEMBL document CHEMBL5576070, “The recent discovery of a promising pharmacological scaffold derived from carvacrol: A review” (Bioorg Med Chem Lett, 2024):
Converted amounts (≈) assume the structure as drawn. Each block holds one molecule with its values, some of them ahead of it.

What was measured:
Bacillus subtilis = assay: Antibacterial activity against Bacillus subtilis assessed as reduction in bacterial growth incubated for 20 hrs by broth microdilution assay; assay type: functional
[1] = tested on: Staphylococcus epidermidis; assay: Antibacterial activity against Staphylococcus epidermidis ATCC 12228 assessed as reduction in bacterial growth incubated for 18 hrs by two fold serial microdilution method; assay type: functional
Pseudomonas fluorescens [2] = assay: Antibacterial activity against Pseudomonas fluorescens assessed as zone of inhibition; assay type: functional
Pseudomonas aeruginosa [3] = assay: Antibacterial activity against Pseudomonas aeruginosa ATCC 15442 assessed as bacterial growth inhibition measured after 18 hrs by CLSI protocol based two-fold serial microdilution method; assay type: functional
Staphylococcus aureus [4] = assay: Antibacterial activity against Staphylococcus aureus ATCC 29213 assessed as bacterial growth inhibition measured after 18 hrs by CLSI protocol based two-fold serial microdilution method; assay type: functional
Escherichia coli = assay: Antibacterial activity against Escherichia coli ATCC 25922 assessed as reduction in bacterial growth incubated for 18 to 20 hrs by broth microdilution assay; assay type: functional; details: time 18-20 hrs
Pseudomonas fluorescens [5] = assay: Antibacterial activity against Pseudomonas fluorescens assessed as reduction in bacterial growth; assay type: functional
Streptococcus pneumoniae = assay: Antibacterial activity against Streptococcus pneumoniae assessed as reduction in bacterial cell growth inhibition by broth microdilution method; assay type: functional, organism-based
Enterococcus faecalis = assay: Antibacterial activity against Enterococcus faecalis ATCC 10541 assessed as reduction in bacterial growth incubated for 24 hrs by broth microdilution method; assay type: functional, organism-based; details: ATCC 10541, 24 h
Staphylococcus aureus [6] = assay: Synergistic antibacterial activity against Staphylococcus aureus ATCC 29213 assessed as fractional inhibitory concentration incubated for 24 hrs in the presence of ampicillin by checkerboard assay; assay type: functional
Pseudomonas aeruginosa [7] = assay: Bactericidal activity against Pseudomonas aeruginosa ATCC 27853 assessed as reduction in bacterial viability; assay type: functional
Pseudomonas aeruginosa [8] = assay: Antibacterial activity against Pseudomonas aeruginosa ATCC 27853 assessed as bacterial growth inhibition measured after 18 hrs by CLSI protocol based two-fold serial microdilution method; assay type: functional
Mus musculus = assay: Antinociceptive activity in Swiss mouse assessed as reduction in pain like behavior at 0.003 mg/kg, ip and measured after 1.5 hrs by cold plate test; assay type: functional; design: scale not given: the % may be the effect or the level left
HCT-15 = assay: Growth inhibition of human HCT-15 cells incubated for 48 hrs by SRB assay; assay type: functional
MIA PaCa-2 = assay: Growth inhibition of human MIA PaCa-2 cells incubated for 48 hrs by SRB assay; assay type: functional

SMILES: Cc1ccc(C(C)C)cc1OCc1cn(-c2ccc(C(=O)O)cc2)nn1
- IC50 (Streptococcus pneumoniae): 15 µg/mL (≈ 42.7 µM)
- IC50 (Enterococcus faecalis): 15 µg/mL (≈ 42.7 µM)

SMILES: Cc1cc(S(=O)(=O)Nc2ccc(F)cc2)c(C(C)C)cc1O
- FIC (Staphylococcus aureus [6]): 0.5

SMILES: Cc1cc(Cl)c(C(C)C)cc1O
- MBC (Pseudomonas aeruginosa [7]): 6.87 µg/mL (≈ 37.2 µM)
- MIC (Pseudomonas aeruginosa [8]): 3.44 µg/mL (≈ 18.6 µM)

SMILES: Cc1c(O)cc(C(C)C)cc1S(=O)(=O)N1CCOCC1
- Activity (Mus musculus): 62%

Continued, in another order:

- MIC (Bacillus subtilis): 250 µg/mL (≈ 1520 µM)
- MIC [1]: 0.06 µM (≈ 0.00985 µg/mL)
- MIC (Pseudomonas aeruginosa [3]): 0.49 µM (≈ 0.0805 µg/mL)
- MIC (Staphylococcus aureus [4]): 250 µg/mL (≈ 1520 µM)
- MIC (Escherichia coli): 250 µg/mL (≈ 1520 µM)
- MIC (Pseudomonas fluorescens [5]): 250 µg/mL (≈ 1520 µM)
SMILES: COc1cc(C(C)C)ccc1C
- inhibition zone (IZ) (Pseudomonas fluorescens [2]): 15 mm

- GI50 (HCT-15): 80 µg/mL
- GI50 (MIA PaCa-2): 80 µg/mL
SMILES: COc1cccc2c1C(=O)c1c(O)c3c(c(O)c1C2=O)C[C@@](O)(C(=O)CO)C[C@@H]3O[C@H]1C[C@H](N)[C@H](O)[C@H](C)O1.Cl [DOXORUBICIN HYDROCHLORIDE]
